Reference: patent US20040122080A1, “Synergist combinations of retinoid receptor ligands and selected cytotoxic agents for treatment of cancer” (priority 2004, published 2004)
Blank lines part the entries; values can stand above or below the compound they belong to.

Legend:
[1] = tested on: MCF7 cells; test: Anchorage-dependent colony formation assay; type: cell-based, human; details: for colony formation and morphology: 6 days exposure, crystal violet
Description: (§1) To determine effects of RAR agonists on anchorage-dependent colony size, number and morphology, MCF7 cells were plated in 6 well plates (500 cells/well) in DMEM supplemented with 10% FBS and grown for 5 days. The medium was then removed and the compounds were added to the medium supplemented with 5% of charcoal stripped FBS (HyClone). The compound containing medium was renewed after 3 days and cultures were allowed to grow an additional 3 days. After 6 days exposure to compounds, colonies were stained with crystal violet. Colonies were counted to quantify colony area and number and photographed under light microscopy to assess effects on colony size and morphology. The results presented are representative of two independent experiments. Immunoblotting MCF-7 cellular lysates were prepared for Western blotting in accordance with procedures described by Sambrook et al. (MOLECULAR CLONING: A LABORATORY MANUAL, 2nd Ed.; Cold Spring Harbor Laboratory Press, Cold Spring Harbor, N. Y. (1989)). Cell lysates were prepared by adding 200 μl of lysis buffer (Tris-HCl, pH 6.8, 20 mM, EDTA 1 mM, NP-40 0.5%) containing a protease inhibitor cocktail (Roche) to each well of 6 well plates. The lysates were then cleared by centrifugation at 10,000 rpm, 4EC for 5 minutes and supernatants were adjusted with Laemmli sample buffer and processed by 10 or 15% SDS-polyacrylamide gel electrophoresis (PAGE), followed by transfer to nitrocellulose membranes (Biorad). Membranes were processed by standard methods and incubated with primary antibodies for 1 hour at room temperature or overnight at 4EC. Bound antibody was visualized using a goat anti-IgG secondary antibody conjugated to HRP and a chemiluminescent detection system (ECL, Amersham Pharmacia Biotech).

[2] = tested on: MCF7, OVCAR3 and SQCC-Y1 cells; test: Growth inhibition, statements across the three human tumor cell lines; type: cell-based; details: co-treatment with paclitaxel, Table 1
Description: (§2) Cellular proliferation was quantified using [^3H] thymidine incorporation. Cells were plated in 96 well plates in media containing 10% fetal bovine serum (FBS) and allowed to adhere overnight. Cell medium was removed the following day and the indicated compounds were added to fresh medium supplemented with 10% of charcoal stripped FBS (HyClone). Compound-containing medium was renewed after 3 days exposure. After 6 day treatment, 4 μCi/ml of [^3H]thymidine (NEN Life Science Products) were added to each well for 2 to 4 hours. The cells were then trypsinized and harvested on GF/B glass fiber filters. [^3H]thymidine incorporated into the DNA was measured in a scintillation Topcount counter (Packard). The results were expressed as percent inhibition compared to the DMSO vehicle.

[3] = tested on: Jun N-terminal Kinase (JNK); test: Jun N-terminal Kinase assay (immunoprecipitated JNK from MCF7 cells); type: cell-based, human
Description: Activity of JNK was measured in accordance with procedures described by Coso et al. (Cell 1995 81:1137-1146) with minor modifications. MCF-7 cells were plated in 6-well plates in DMEM supplemented with 10% FBS and allowed to adhere overnight. The next day, the cells were switched to DMEM supplemented with 0.5% charcoal-stripped FBS (HyClone) and 100 nM of indicated retinoids or 0.1% DMSO was added to the cells for 24 hours before an additional 2 to 3 hours incubation in the presence of 1 μM of paclitaxel. Cell lysates was prepared from each well as described and cleared by centrifugation. JNK was immunoprecipitated from each lysate by incubating overnight at 4° C. with 1 μg of anti-hJNK (Pharmingen) and 25 μl of protein G agarose beads (Gibco-BRL) previously washed with the lysis buffer. Immune complexes were pelleted by centrifugation 2 minutes at 10,000 rpm 4° C. and washed 3 times with PBS containing 1% NP40 and 2 mM of Na3VO4, once with 100 mM Tris-HCl pH7.5, 0.5 mM LiCl and once with Kinase Reaction Buffer (KRB: 12.5 mM MOPS pH7.5, 12.5 mM β-glycerolphosphate, 7.5 mM MgCl2, 0.5 mM EGTA, 0.5 mM NaF, 0.5 mM Na3VO4). […] The kinase reaction was terminated by adding 10 μl of Laemmli sample buffer. resolved by 10% SDS-PAGE and phosphorylated GST-c-Jun visualized by autoradiography and quantified by densitometry. […]

[4] = tested on: AP1 transcriptional activity; test: AP1 reporter assay, MCF7 cells with (AP1)5x-tk-Luc; type: cell-based, human
Description: AP1 transcriptional activity was assessed in MCF7 cells stably transfected with (AP1)5x-tk-Luc reporter gene (IGBMC, France). (AP1)5x corresponds to the collagenase gene AP1 response element repeated 5 times in tandem, tk is the minimal thymidine kinase promoter, and Luc the coding sequence of the luciferase gene. MCF7 cells were plated in 12-well plates at a density of 400,000 cells per well in DMEM supplemented with 10% FBS and allowed to adhere overnight. The next day, the medium was removed, the cells were washed with PBS and supplemented with DMEM medium containing 0.5% of charcoal stripped FBS (HyClone). […] The luciferase activity was measured by using Luc-lite system from Packard according to manufacturer's recommendations. Results are expressed as percent activity compared to PMA (10 nM) which was assigned as 100% activity. The data presented are the mean ± sem (standard error of the mean)of 3 independent experiments.

[5] = tested on: MCF7; test: Mitogenic assay, growth inhibition ([3H]-thymidine incorporation), retinoid/paclitaxel co-treatment; type: cell-based, human
Description: as §2

[6] = tested on: SQCC-Y1; test: as above; type: cell-based, human
Description: as §2

[7] = tested on: OVCAR3; test: as above; type: cell-based, human
Description: as §2

[8] = tested on: Bcl-2; test: Bcl-2 expression and phosphorylation (immunoblotting); type: cell-based, human; details: MCF7; single agent
Description: as §1, with “The lysates were then cleared by centrifugation at 10,000 rpm, 4EC for 5 minutes and supernatants were adjusted with Laemmli sample buffer and processed by 10 or 15% SDS-polyacrylamide gel electrophoresis (PAGE), followed by transfer to nitrocellulose membranes (Biorad). Membranes were processed by standard methods and incubated with primary antibodies for 1 hour at room temperature or overnight at 4EC. Bound antibody was visualized using a goat anti-IgG secondary antibody conjugated to HRP and a chemiluminescent detection system (ECL, Amersham Pharmacia Biotech).” left out

[9] = tested on: tubulin; test: Tubulin polymerization assay in MCF7 cells; type: cell-based, human; details: single agent, Western blotting of soluble and polymerized tubulin
Description: The effects of retinoid and paclitaxel exposure on free and polymerized tubulin levels were determined in accordance with procedures described by Giannakakou et al. (J. Biol. Chem. 1997 272:17118-17125). MCF7 cells were plated in 6 well plates in DMEM supplemented with 10% FBS and allowed to adhere overnight. Cell medium was removed the following day and the indicated compounds were added to fresh medium supplemented with 5% of charcoal stripped FBS (HyClone). The cells were grown for 3 days in the presence of the retinoids before paclitaxel was added for 1 hour. Soluble and polymerized tubulin were extracted and respective levels were assessed by Western blotting as described above using anti-(tubulin antibodies (n=2).

[10] = Homo sapiens, 144 h, maximal inhibition, paclitaxel co-treated with the labelled retinoid (none = paclitaxel alone), read-out: Efficacy (percent inhibition compared with DMSO)

Structure (SMILES): CC1=C(/C=C/C(C)=C/C=C/C(C)=C/C(=O)O)C(C)(C)CCC1 [ATRA, all trans retinoic acid]
colony formation and morphology ([1]; MCF7): impaired colony formation | apoptosis in treated colonies ([1]; MCF7 colonies): high level of apoptosis

Structure (SMILES): Cc1cccc(C2=CC(=O)C(C)(C)c3cc4ccc(-c5ccc(C(=O)O)cc5)cc4cc32)c1 [Formula II, 4-(5,6-dihydro-5,5-dimethyl-6-oxo-8-(3-methyl-phenyl)-anthracen-2-yl)-benzoic acid]
effect on the effective dose of paclitaxel required to induce cytotoxicity [2]: lowered the effective dose of paclitaxel required to induce cytotoxicity | colony formation and morphology ([1]; MCF7): strongly impaired colony formation | sensitivity of the cells to paclitaxel ([1]; MCF7, pre-treatment for three days): significantly enhanced the sensitivity of the cells to paclitaxel | effect on paclitaxel-induced JNK activity ([3]; combination with paclitaxel): did not modify paclitaxel-induced JNK activity | effect on paclitaxel/PMA-induced AP1 activity ([4]; combination with paclitaxel): did enhance the effects of paclitaxel/PMA or AP1 activity

decrease of the IC50 of paclitaxel in the presence of the retinoid [5]: 8 fold | decrease of the IC50 of paclitaxel in the presence of the retinoid [7]: 15 fold
Structure (SMILES): CC(C)(C)/C=C\C1=CCC(C)(C)c2ccc(/C=C/c3ccc(C(=O)O)cc3)cc21 [Formula Ia]
effect on the effective dose of paclitaxel required to induce cytotoxicity [2]: dramatically lowered the effective dose of paclitaxel required to induce cytotoxicity | decrease of the IC50 of paclitaxel in the presence of the retinoid [6]: 32 fold | colony formation and morphology ([1]; MCF7): dramatic change in the morphology of both the colonies and the cells | inhibition at 0.05 µM ([4]; Homo sapiens, MCF7, at 50 nM, PMA 10 nM, 6 hours, read-out: inhibition of PMA-induced AP1 reporter activity, maximum): 30 to 45%

IC50 ([7]; Homo sapiens, OVCAR-3, 144 h, 6 day treatment, paclitaxel co-treated with the labelled retinoid (none = paclitaxel alone), mean of 2 to 5 experiments): 0.6 nM
Structure (SMILES): CC(=O)O[C@H]1C(=O)[C@@]2(C)[C@H]([C@H](OC(=O)c3ccccc3)[C@]3(O)C[C@H](OC(=O)[C@H](O)[C@@H](NC(=O)c4ccccc4)c4ccccc4)C(C)=C1C3(C)C)[C@]1(OC(C)=O)CO[C@@H]1C[C@@H]2O [paclitaxel]
Emax [5, 10]: 100% | IC50 ([6]; Homo sapiens, 144 h, 6 day treatment, paclitaxel co-treated with the labelled retinoid (none = paclitaxel alone), mean of 2 to 5 experiments): 0.16 nM | Emax [6, 10]: 100% | Emax ([7]; Homo sapiens, OVCAR-3, 144 h, maximal inhibition, paclitaxel co-treated with the labelled retinoid (none = paclitaxel alone), read-out: Efficacy (percent inhibition compared with DMSO)): 99% | increase in JNK activity ([3]; single agent, paclitaxel 1 μM 2 to 3 hours, retinoids 100 nM 24 hours): 2.5 fold | phosphorylation of Bcl-2 [8]: dose-dependent increase | enhancement of PMA-induced AP1 transcriptional activity ([4]; single agent, paclitaxel 1 μM, PMA 10 nM): 20% | polymerization of tubulin [9]: dose-dependent polymerization of tubulin
